Reference: US20210353593A1 (Chinook Therapeutics, Inc., priority 2019, published 2021)

Test system: hallmark gene sets in kidney tissue of g-ddY mice
Assay: Gene Set Enrichment Analysis (GSEA) of hallmark gene sets, g-ddY mouse kidney RNA-seq
Format: in vivo

Q: How did the “HALLMARK_INTERFERON_ALPHA_RESPONSE NES” value (20 mg/kg/day vs. control) turn out when `CCCCN(CCCC)C(=O)CN1C[C@H](c2ccc3c(c2)OCO3)[C@@H](C(=O)O)[C@@H]1c1ccc(OC)cc1` [Atrasentan, (2R,3R,4S)-4-(1,3-benzodioxol-5-yl)-1-[2-(dibutylamino)-2-oxoethyl]-2-(4-methoxyphenyl)pyrrolidine-3-carboxylic acid] was run?
A: The value was −2.44.

Q: What about the “HALLMARK_INTERFERON_GAMMA_RESPONSE NES” value (20 mg/kg/day vs. control) of the same molecule?
A: Its value is −2.88.

Q: And the “HALLMARK_KRAS_SIGNALING_DN NES” value (20 mg/kg/day vs. control)?
A: Its value is 1.32.

Q: What about the “HALLMARK_KRAS_SIGNALING_UP NES” value (20 mg/kg/day vs. control) of the same molecule?
A: The value was −2.65.

Q: And the “HALLMARK_M ITOTIC_SPINDLE NES” value (20 mg/kg/day vs. control)?
A: Its value is −1.79.

Q: What about the “HALLMARK_MTORC1_SIGNALING NES” value (20 mg/kg/day vs. control) of the same molecule?
A: Its value is 1.23.

Q: What about the “HALLMARK_MYC_TARGETS_V1 NES” value (20 mg/kg/day vs. control) of the same molecule?
A: The value was −0.81.

Q: What about the “HALLMARK_MYC_TARGETS_V2 NES” value (20 mg/kg/day vs. control) of the same molecule?
A: Its value is 0.76.

Q: What about the “HALLMARK_MYOGENESIS NES” value (20 mg/kg/day vs. control) of the same molecule?
A: The value was −1.60.

Q: And the “HALLMARK_NOTCH_SIGNALING NES” value (20 mg/kg/day vs. control)?
A: The value was 0.69.

Q: And the “HALLMARK_OXIDATIVE_PHOSPHORYLATION NES” value (20 mg/kg/day vs. control)?
A: Its value is 3.38.

Q: What about the “HALLMARK_P53_PATHWAY NES” value (20 mg/kg/day vs. control) of the same molecule?
A: The value was −1.3.

Q: What about the “HALLMARK_PANCREAS_BETA_CELLS NES” value (20 mg/kg/day vs. control) of the same molecule?
A: Its value is 0.98.

Q: What about the “HALLMARK_PEROXISOME NES” value (20 mg/kg/day vs. control) of the same molecule?
A: Its value is 1.88.

Q: And the “HALLMARK_PI3K_AKT_MTOR SIGNALING NES” value (20 mg/kg/day vs. control)?
A: Its value is −1.24.

Q: And the “HALLMARK_PROTEIN_SECRETION NES” value (20 mg/kg/day vs. control)?
A: The value was 1.08.

Q: What about the “HALLMARK_REACTIVE_OXYGEN_SPECIES_PATHWAY NES” value (20 mg/kg/day vs. control) of the same molecule?
A: Its value is 1.61.

Q: And the “HALLMARK_SPERMATOGENESIS NES” value (20 mg/kg/day vs. control)?
A: Its value is 1.17.

Q: What about the “HALLMARK_TGF_BETA_SIGNALING NES” value (20 mg/kg/day vs. control) of the same molecule?
A: The value was −1.96.

Q: And the “HALLMARK_TNFA_SIGNALING_VIA_NFKB NES” value (20 mg/kg/day vs. control)?
A: The value was −3.06.

Q: What about the “HALLMARK_UNFOLDED_PROTEIN_RESPONSE NES” value (20 mg/kg/day vs. control) of the same molecule?
A: Its value is −0.64.

Q: What about the “HALLMARK_UV_RESPONSE_DN NES” value (20 mg/kg/day vs. control) of the same molecule?
A: Its value is −2.36.

Q: What about the “HALLMARK_UV_RESPONSE_UP NES” value (20 mg/kg/day vs. control) of the same molecule?
A: Its value is 1.15.

Q: And the “HALLMARK_WNT_BETA_CATENIN_SIGNALING NES” value (20 mg/kg/day vs. control)?
A: The value was −1.57.

Q: And the “HALLMARK_XENOBIOTIC_METABOLISM NES” value (20 mg/kg/day vs. control)?
A: The value was 2.16.

Q: What about the “cell proliferation associated signaling (mitotic spindle and G2M checkpoint)” value (30 mg/kg/day) of the same molecule?
A: The value was “reduced”.

Q: And the inflammatory response signaling (30 mg/kg/day)?
A: Its inflammatory response signaling is “reduced”.

Q: And the “HALLMARK_ADIPOGENESIS NES” value (30 mg/kg/day vs. control)?
A: The value was 2.64.

Q: And the “HALLMARK_ALLOGRAFT_REJECTION NES” value (30 mg/kg/day vs. control)?
A: The value was −2.12.

Q: And the “HALLMARK_ANDROGEN_RESPONSE NES” value (30 mg/kg/day vs. control)?
A: Its value is 0.92.

Q: What about the “HALLMARK_ANGIOGENESIS NES” value (30 mg/kg/day vs. control) of the same molecule?
A: Its value is −1.86.

Q: What about the “HALLMARK_APICAL_JUNCTION NES” value (30 mg/kg/day vs. control) of the same molecule?
A: The value was −2.00.

Q: And the “HALLMARK_APICAL_SURFACE NES” value (30 mg/kg/day vs. control)?
A: The value was −1.65.

Q: And the “HALLMARK_APOPTOSIS NES” value (30 mg/kg/day vs. control)?
A: Its value is −1.52.

Q: What about the “HALLMARK_BILE_ACID_METABOLISM NES” value (30 mg/kg/day vs. control) of the same molecule?
A: Its value is 2.40.

Q: What about the “HALLMARK_CHOLESTEROL_HOMEOSTASIS NES” value (30 mg/kg/day vs. control) of the same molecule?
A: The value was 1.14.

Q: What about the “HALLMARK_COAGULATION NES” value (30 mg/kg/day vs. control) of the same molecule?
A: Its value is −1.56.

Q: What about the “HALLMARK_COMPLEMENT NES” value (30 mg/kg/day vs. control) of the same molecule?
A: Its value is −1.56.

Q: What about the “HALLMARK_DNA_REPAIR NES” value (30 mg/kg/day vs. control) of the same molecule?
A: The value was 1.52.

Q: And the “HALLMARK_E2F_TARGETS NES” value (30 mg/kg/day vs. control)?
A: The value was −1.46.

Q: And the “HALLMARK_EPITHELIAL_MESENCHYMAL_TRANSITION NES” value (30 mg/kg/day vs. control)?
A: Its value is −2.60.

Q: And the “HALLMARK_ESTROGEN_RESPONSE_EARLY NES” value (30 mg/kg/day vs. control)?
A: Its value is −1.22.

Q: And the “HALLMARK_ESTROGEN_RESPONSE_LATE NES” value (30 mg/kg/day vs. control)?
A: Its value is 1.16.

Q: What about the “HALLMARK_FATTY_ACID_METABOLISM NES” value (30 mg/kg/day vs. control) of the same molecule?
A: Its value is 2.90.

Q: And the “HALLMARK_G2M_CHECKPOINT NES” value (30 mg/kg/day vs. control)?
A: Its value is −1.92.

Q: And the “HALLMARK_GLYCOLYSIS NES” value (30 mg/kg/day vs. control)?
A: The value was 1.96.

Q: What about the “HALLMARK_HEDGEHOG_SIGNALING NES” value (30 mg/kg/day vs. control) of the same molecule?
A: Its value is −1.94.

Q: What about the “HALLMARK_HEME_METABOLISM NES” value (30 mg/kg/day vs. control) of the same molecule?
A: The value was 1.99.

Q: And the “HALLMARK_HYPOXIA NES” value (30 mg/kg/day vs. control)?
A: The value was −1.18.

Q: And the “HALLMARK_IL2_STAT5_SIGNALING NES” value (30 mg/kg/day vs. control)?
A: Its value is −1.56.

Q: And the “HALLMARK_IL6_JAK_STAT3_SIGNALING NES” value (30 mg/kg/day vs. control)?
A: Its value is −2.33.

Q: What about the “HALLMARK_INFLAMMATORY_RESPONSE NES” value (30 mg/kg/day vs. control) of the same molecule?
A: The value was −2.40.

Q: What about the “HALLMARK_INTERFERON_ALPHA_RESPONSE NES” value (30 mg/kg/day vs. control) of the same molecule?
A: Its value is −1.80.

Q: What about the “HALLMARK_INTERFERON_GAMMA_RESPONSE NES” value (30 mg/kg/day vs. control) of the same molecule?
A: Its value is −2.26.

Q: What about the “HALLMARK_KRAS_SIGNALING_DN NES” value (30 mg/kg/day vs. control) of the same molecule?
A: Its value is −1.12.

Q: What about the “HALLMARK_KRAS_SIGNALING_UP NES” value (30 mg/kg/day vs. control) of the same molecule?
A: The value was −2.31.

Q: What about the “HALLMARK_M ITOTIC_SPINDLE NES” value (30 mg/kg/day vs. control) of the same molecule?
A: The value was −2.02.

Q: What about the “HALLMARK_MTORC1_SIGNALING NES” value (30 mg/kg/day vs. control) of the same molecule?
A: Its value is 1.81.

Q: What about the “HALLMARK_MYC_TARGETS_V1 NES” value (30 mg/kg/day vs. control) of the same molecule?
A: The value was 1.26.

Q: What about the “HALLMARK_MYC_TARGETS_V2 NES” value (30 mg/kg/day vs. control) of the same molecule?
A: Its value is 0.92.

Q: And the “HALLMARK_MYOGENESIS NES” value (30 mg/kg/day vs. control)?
A: Its value is −1.30.

Q: What about the “HALLMARK_NOTCH_SIGNALING NES” value (30 mg/kg/day vs. control) of the same molecule?
A: The value was −1.15.

Q: And the “HALLMARK_OXIDATIVE_PHOSPHORYLATION NES” value (30 mg/kg/day vs. control)?
A: The value was 3.69.

Q: And the “HALLMARK_P53_PATHWAY NES” value (30 mg/kg/day vs. control)?
A: Its value is 1.10.

Q: What about the “HALLMARK_PANCREAS_BETA_CELLS NES” value (30 mg/kg/day vs. control) of the same molecule?
A: Its value is 1.07.

Q: What about the “HALLMARK_PEROXISOME NES” value (30 mg/kg/day vs. control) of the same molecule?
A: The value was 2.39.

Q: What about the “HALLMARK_PI3K_AKT_MTOR SIGNALING NES” value (30 mg/kg/day vs. control) of the same molecule?
A: Its value is 0.83.

Q: What about the “HALLMARK_PROTEIN_SECRETION NES” value (30 mg/kg/day vs. control) of the same molecule?
A: The value was 1.73.

Q: And the “HALLMARK_REACTIVE_OXYGEN_SPECIES_PATHWAY NES” value (30 mg/kg/day vs. control)?
A: Its value is 1.98.

Q: What about the “HALLMARK_SPERMATOGENESIS NES” value (30 mg/kg/day vs. control) of the same molecule?
A: The value was 1.21.

Q: What about the “HALLMARK_TGF_BETA_SIGNALING NES” value (30 mg/kg/day vs. control) of the same molecule?
A: The value was −1.55.

Q: What about the “HALLMARK_TNFA_SIGNALING_VIA_NFKB NES” value (30 mg/kg/day vs. control) of the same molecule?
A: The value was −2.63.

Q: And the “HALLMARK_UNFOLDED_PROTEIN_RESPONSE NES” value (30 mg/kg/day vs. control)?
A: The value was 0.78.

Q: What about the “HALLMARK_UV_RESPONSE_DN NES” value (30 mg/kg/day vs. control) of the same molecule?
A: The value was −2.39.

Q: And the “HALLMARK_UV_RESPONSE_UP NES” value (30 mg/kg/day vs. control)?
A: The value was 1.63.

Q: And the “HALLMARK_WNT_BETA_CATENIN_SIGNALING NES” value (30 mg/kg/day vs. control)?
A: The value was −1.63.

Q: And the “HALLMARK_XENOBIOTIC_METABOLISM NES” value (30 mg/kg/day vs. control)?
A: Its value is 2.38.
